The text below walks through data of US20260041781A1, “NOVEL GLUCOCORTICOID RECEPTOR AGONISTS AND IMMUNOCONJUGATES THEREOF” (priority 2022, published 2026).

Structures are written as SMILES.

The target in the assay is T1, GR LBD (ligand binding domain) (Homo sapiens, UniProt P04150).
T1 construct: expressed in transfected cells; host or cells: HEK293
T1 sequence (P04150 524-758 limits assumed): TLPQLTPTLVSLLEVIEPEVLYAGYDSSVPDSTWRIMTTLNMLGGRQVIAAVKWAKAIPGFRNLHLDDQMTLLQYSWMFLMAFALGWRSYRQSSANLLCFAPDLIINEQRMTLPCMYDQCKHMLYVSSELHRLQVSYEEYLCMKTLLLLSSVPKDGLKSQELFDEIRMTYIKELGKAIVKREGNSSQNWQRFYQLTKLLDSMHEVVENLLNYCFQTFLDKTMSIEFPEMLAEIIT
Kind of assay: GR Reporter Assay (pBind assay, pG5luc luciferase reporter, agonist mode). Format: cell-based. The settings on record: HEK293 cells transiently transfected with pG5luc and GR LBD. How it is done: The assay is a pBind assay following the general principle outlined below. 2×10^4 HEK293 cells/96-well are transiently transfected with pG5luc and GR LBD 1:1 at 50 ng/well. GR LBD (ligand binding domain) is a […] fusion protein (used to yeast GAL4) and upon binding to the test article will bind the luciferase reporter and activate transcription of luciferase. Upon addition of a substrate, the luciferase activity can be measured and corresponds to the activity of the test article. The assay is performed in agonist mode.
The compound `C[C@]12C=CC(=O)C=C1CC[C@H]1[C@@H]3C[C@H]4O[C@H](c5cccc(N)c5)O[C@@]4(C(=O)CCl)[C@@]3(C)C[C@H](O)[C@@]12F` [Compound 1] had an EC50 of under 5 nM.

`C[C@]12C=CC(=O)C=C1CC[C@H]1[C@@H]3C[C@H]4O[C@@H](c5cccc(N)c5)O[C@@]4(C(=O)CCl)[C@@]3(C)C[C@H](O)[C@@]12F` [Compound 2] displayed an EC50 of under 5 nM.

In turn, `C[C@]12C=CC(=O)C=C1CC[C@H]1[C@@H]3C[C@H]4O[C@@H](c5cccc(N)c5)O[C@@]4(C(=O)CF)[C@@]3(C)C[C@H](O)[C@@]12F` [Compound 3] returned an EC50 of under 5 nM.

In turn, `C[C@@H]1C[C@H]2[C@@H]3C[C@H](F)C4=CC(=O)C=C[C@]4(C)[C@@]3(F)[C@@H](O)C[C@]2(C)[C@@]1(OC(=O)c1ccco1)C(=O)NCCOc1ccc(N)cc1` [Compound 7] had an EC50 of under 5 nM.

On to `C[C@@H]1C[C@H]2[C@@H]3C[C@H](F)C4=CC(=O)C=C[C@]4(C)[C@@]3(F)[C@@H](O)C[C@]2(C)[C@@]1(OC(=O)c1cccc(N)c1)C(=O)N(C)C` [Compound 8], for which the EC50 was under 5 nM.

Turning to `C[C@@H]1C[C@H]2[C@@H]3C[C@H](F)C4=CC(=O)C=C[C@]4(C)[C@@]3(F)[C@@H](O)C[C@]2(C)[C@@]1(OC(=O)c1ccc(N)cc1)C(=O)N(C)C` [Compound 9], the EC50 is under 5 nM.

Consider `CNC(=O)[C@@]1(OC(=O)c2cccc(N)c2)[C@H](C)C[C@H]2[C@@H]3C[C@H](F)C4=CC(=O)C=C[C@]4(C)[C@@]3(F)[C@@H](O)C[C@@]21C` [Compound 10], for which the EC50 was over 30 nM.

For `CNC(=O)[C@@]1(OC(=O)c2ccc(N)cc2)[C@H](C)C[C@H]2[C@@H]3C[C@H](F)C4=CC(=O)C=C[C@]4(C)[C@@]3(F)[C@@H](O)C[C@@]21C` [Compound 11], the 50% effective concentration (EC50) is over 30 nM.

The compound `C[C@@H]1C[C@H]2[C@@H]3CCC4=CC(=O)C=C[C@]4(C)[C@@]3(F)[C@@H](O)C[C@]2(C)[C@@]1(OC(=O)c1cccc(N)c1)C(=O)N(C)C` [Compound 12] gave an EC50 of under 5 nM.

Consider `C[C@@H]1C[C@H]2[C@@H]3C[C@H](F)C4=CC(=O)C=C[C@]4(C)[C@@]3(F)[C@@H](O)C[C@]2(C)[C@@]1(OC(=O)c1cccc(N)c1)C(=O)N1CCCC1` [Compound 14], for which the EC50 was over 30 nM.

In the case of `C[C@@H]1C[C@H]2[C@@H]3C[C@H](F)C4=CC(=O)C=C[C@]4(C)[C@@]3(F)[C@@H](O)C[C@]2(C)[C@@]1(OC(=O)c1cccc(N)c1)C(=O)N1CCOCC1` [Compound 15], the EC50 is over 30 nM.

`C[C@@H]1C[C@H]2[C@@H]3C[C@H](F)C4=CC(=O)C=C[C@]4(C)[C@@]3(F)[C@@H](O)C[C@]2(C)[C@@]1(OC(=O)c1cccc(N)c1)C(=O)N1CC(CO)C1` [Compound 17] came in with a half-maximal effective concentration (EC50) of over 30 nM.

As for `C[C@@H]1C[C@H]2[C@@H]3C[C@H](F)C4=CC(=O)C=C[C@]4(C)[C@@]3(F)[C@@H](O)C[C@]2(C)[C@@]1(OC(=O)c1cccc(N)c1)C(=O)N(C)CCO` [Compound 18], the half-maximal effective concentration (EC50) is over 30 nM.

The compound `C[C@@H]1C[C@H]2[C@@H]3C[C@H](F)C4=CC(=O)C=C[C@]4(C)[C@@]3(F)[C@@H](O)C[C@]2(C)[C@@]1(OC(=O)c1cccc(N)c1)C(=O)NCCO` [Compound 19] came in with an EC50 of over 30 nM.

Consider `C[C@@H]1C[C@H]2[C@@H]3C[C@H](F)C4=CC(=O)C=C[C@]4(C)[C@@]3(F)[C@@H](O)C[C@]2(C)[C@@]1(OC(=O)c1cccc(N)c1)C(=O)N(C)CC(O)CO` (stereo partly drawn) [Compound 20, (6S,8S,9R,10S,11S,13S,14S,16R,17R)-17-((2,3-dihydroxypropyl)(methyl)carbamoyl)-6,9-difluoro-11-hydroxy-10,13,16-trimethyl-3-oxo-6,7,8,9,10,11,12,13,14,15,16,17-dodecahydro-3H-cyclopenta[a]phenanthren-17-yl 3-aminobenzoate], for which the concentration for a half-maximal effect (EC50) is over 30 nM.

Turning to `CN(C)C(=O)[C@@]12O[C@H](c3cccc(Cc4cccc(N)c4)c3)O[C@@H]1C[C@H]1[C@@H]3CCC4=CC(=O)C=C[C@]4(C)[C@H]3[C@@H](O)C[C@@]12C` [Compound 23], the EC50 was under 5 nM.

In turn, `C[C@]12C=CC(=O)C=C1CC[C@@H]1[C@@H]2[C@@H](O)C[C@@]2(C)[C@H]1C[C@H]1O[C@@H](c3ccc(Cc4cccc(N)c4)cc3)O[C@]12C(=O)CF` [Compound 25] returned an EC50 of under 5 nM.
